Measured values: patent US20250152576A1, “INJECTABLE FORMULATION COMPRISING ISOXAZOLINE DERIVATIVE AND METHOD FOR PREPARING SAME” (LG CHEM, LTD., priority 2022, published 2025)

How the values were obtained:
[1] = Solubility of compound of Formula 1 in water and solvents of various compositions; assay type: physicochemical
Text: Further, it was confirmed that the compound of Formula 1 has the property of reducing the pH of a solution while being dissolved in a solvent.

[2] = Change in API purity during preparation of freeze-drying formulation, UPLC; assay type: physicochemical; settings: API powder before dissolving in the solvent composition
Description: A final API freeze-drying formulation was prepared as described in Table 16 below.
In order to confirm the change in purity of the API during the preparation of the final API freeze-drying formulation, the purity of the API powder before dissolving in the solvent composition, and the API purity during the preparation of the API mixture solution and after freeze-drying were measured using UPLC.

Question: With `CC(C)[C@@]1(C(=O)N[C@H]2CC(=O)O[C@]2(O)CF)CC(c2nccc3ccccc23)=NO1` [Compound of Formula 1, (R)-N-((2S,3S)-2-(fluoromethyl)-2-hydroxy-5-oxotetrahydrofuran-3-yl)-5-isopropyl-3-(isoquinolin-1-yl)-4,5-dihydroisoxazol-5-carboxamide] as the compound, how does the “solubility in acidic solvents” value ([1]; acidic solvents of pH 4 or less containing phosphate buffer, solubilizing agent and pH adjusting agent) read?
Answer: Its value is “hardly soluble”.

Question: What about the solubility in water ([1]; water) of the same compound?
Answer: The solubility in water was “poorly soluble in water”.

Question: And the “solubility in weak acidic and basic solvents” value ([1]; weak acidic solvents of pH 6 or more and basic solvents of pH 7.5 or more)?
Answer: The value was “dissolved well”.

Question: And the “Purity (%)” value [2]?
Answer: The value was 98.6%.
